Here are results for 1 molecule from paper PMC4775225, “Bromodomain inhibition of the transcriptional coactivators CBP/EP300 as a therapeutic strategy to target the IRF4 network in multiple myeloma” (eLife, 2016).

Structures are written as SMILES.

Assay [1] has as its target T1, CBP bromodomain and histone H3.3 (Homo sapiens, UniProt Q92793).
T1 construct: NanoBRET with the isolated CBP bromodomain and histone H3.3 in 293 cells; host or cells: HEK293
The assay is described as follows: NanoBRET, CBP bromodomain/histone H3.3 in HEK293 cells. The assay is classed as cell-based. As to conditions: NanoBRET, 293 cells. The method, then: NanoBRET was carried out using the NanoBRET Protein:Protein Interaction System (Promega, Inc.; Madison, WI) according to the manufacturer’s instructions. Briefly, HEK293 cells were transiently co-transfected with a vector for histone H3.3-HaloTag and a NanoLuc tagged CBP bromodomain expression construct. Transfected cells were plated in 96 -well plates in the presence or absence of ligand, then treated with dose titrations of indicated compounds. Readings were performed on an Envision Plate Reader (Perkin Elmer, Inc.; Waltham, MA) and BRET readings were calculated by dividing the acceptor emission value (600 nm) by the donor emission value (460/50 nm).
In general terms: BRET reads energy transfer from a luciferase to a nearby fluorophore.

In assay [2] the target is T2, CBP bromodomain (amino acids 1082–1197) (Homo sapiens, UniProt Q92793).
T2 construct: His-Flag-tagged CBP bromodomain (amino acids 1082–1197)
T2 sequence (Q92793 1082-1197): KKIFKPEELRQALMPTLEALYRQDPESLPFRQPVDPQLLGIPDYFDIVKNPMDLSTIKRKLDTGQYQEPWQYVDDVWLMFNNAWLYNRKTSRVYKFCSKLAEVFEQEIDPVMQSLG
The assay is described as follows: AlphaLISA, acetylated peptide binding to CBP bromodomain. The following applies: isolated CBP bromodomain, H4-TetraAc-biotin peptide; n ≥ 2 independent replicates. The method, then: (§1) Compound at varying concentrations were dispensed into 384 well Proxiplates (Perkin Elmer) using Echo technology (Labcyte, Inc.; Sunnyvale, CA). For CBP assays, 0.5 μM His-Flag-tagged CBP bromodomain (amino acids 1082–1197) was incubated with 0.003 μM H4-TetraAc-biotin for 20 min at room temperature in 1x reaction buffer (50 mM HEPES pH 7.5, 1 mM TCEP, 0.069 mM Brij-35, 150 mM NaCl, and 0.1 mg/ml BSA). Streptavidin acceptor beads and nickel donor beads (Perkin Elmer) were added to 15 μg/ml with a Combi Multidrop dispenser. Plates were sealed and incubated at 90 min in the dark at room temperature, and plates were read on an Envision plate reader (Perkin Elmer) according to manufacturer’s instructions. For the BET assays, the protocol was similar except that BET family bromodomains were used at 0.03 μM (BRD4-BD1) and incubated with 0.2 μM H4-TetraAc-biotin for 20 min in reaction buffer (40 mM HEPES pH7.0, 1 mM DTT, 0.069 mM Brij-35, 40 mM NaCl, and 0.1 mg/ml BSA). Streptavidin donor beads and Anti-Flag Acceptor beads (Perkin Elmer) were added to 10 μg/ml, and then plates were sealed and incubated in the dark for 60 min prior to reading on the Envision.
(Alpha assays give light when donor and acceptor beads are brought close together.)

In assay [3] the target is T3, full length BRD4 ZsGreen fusion protein (Homo sapiens, UniProt O60885).
T3 construct: CBP: CBP-bromodomain/BRD9; BRD4: full length BRD4; expressed in transfected cells
The assay is described as follows: Bromodomain chromatin release assay, BRD4 (U2OS, high content imaging). In kind it is cell-based. As to conditions: 2 hr, n = 2 biological replicates ± SEM, read-out: IC50 (μM), BRD4 chromatin release (EC50). The method, then:
As described previously ([Huang et al., 2014]), this assay monitors the compound-dependent release and aggregation of a fusion protein consisting of a bromodomain and the fluorescent protein ZsGreen. For the BRD4 chromatin release assay, U2OS cells capable of inducibly expressing the full-length BRD4 protein in fusion with ZsG were generated using the pLVT3G/ZsGreen-BRD4/TO3G vector and maintained in blasticidin at 15 μg/ml. […] Therefore, the bromodomain (BD) of CBP was cloned into full length BRD9 (replacing the BRD9 BD) in frame with a ZsGreen fluorescent tag (ZsG). U2OS cells capable of inducibly expressing the ZsGreen-CBPBD fusion protein were generated by lentiviral delivery of the pLVT3G/BRD9-ZsG-CBPBD/TO3G vector, which contains both the inducible fusion protein and the tet transactivator. Cells were selected and maintained in the presence of 15 μg/ml blasticidin. 5000 cells/well were seeded in 384-well imaging plates in the presence of 2 μg/ml doxycycline to induce the expression of ZsG-fusion proteins. After 16 hr of incubation with doxycycline, fresh media containing serial dilution of compounds were added to the cells for 2 hr at 37°C. Cells were fixed with 4% paraformaldehyde (PFA) dissolved in PBS for 15 min at room temperature. Images of cells were acquired using ImageXpress Micro (Molecular Devices, Inc.; Sunnyvale, CA) and processed with the Transfluor Module of MetaXpress software. Average pits per cell values were obtained from four adjacent images in each well with two technical replicates for each compound concentration. Dose-response curves were generated by plotting the average pits per cell values at each dose and EC50 values were calculated by a four-parameter non-linear regression model in GraphPad Prism.

In assay [4] the target is T4, first bromodomain of BRD4 (BRD4-BD1) (Homo sapiens, UniProt O60885).
T4 construct: the first bromodomain of BRD4 (BRD4-BD1)
The assay is described as follows: AlphaLISA, acetylated peptide binding to BRD4-BD1. As to conditions: BRD4-BD1, H4-TetraAc-biotin peptide; n ≥ 2 independent replicates. As for the experimental part:
as §1

T1 sequence (Q92793 1085-1192 limits assumed): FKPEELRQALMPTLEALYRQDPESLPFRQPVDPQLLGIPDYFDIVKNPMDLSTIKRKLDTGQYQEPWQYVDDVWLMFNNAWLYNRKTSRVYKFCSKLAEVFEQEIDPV

For orientation: IC50 means the midpoint of a concentration-inhibition curve. Read a low IC50 as greater potency in that assay. For orientation: EC50 means the concentration that produces a half-maximal response. On to `Cc1sc2c(c1C)C(c1ccc(Cl)cc1)=N[C@@H](CC(N)=O)c1nnc(C)n1-2` [CPI203], for which, in assay [1], the “dose-dependent inhibition of CBP-H3.3 binding” value is given as “did not display dose-dependent inhibition”. Also, the IC50 in assay [2] was found to be 6500 ± 640 nM; in assay [4], 50 ± 10 nM. For the same molecule, the EC50 in assay [3] was 0.05 ± 0.02 µM.
